The test system of experiment [1] is RPE-Neo or RPE-MYC or RPE-MYC expressing an EGFP-Histone 2B fusion protein. The experiment in a line: Phenotypic screening assay (arrest in mitosis, change in DNA content, cell death; GE IN-Cell Analyzer 2000). It is filed as cell-based. The conditions noted are these: Homo sapiens, compounds 20 nM to 20 μM, 24, 48 or 72 hours.
The test system is the same in experiment [2]. The experiment can be described thus: MTT assays of cellular proliferation. It is filed as cell-based. The following applies: Homo sapiens, min. effective conc., read-out: Proliferative arrest (<50%).
[3] abbreviates: read-out: Min. Effective conc. for Polyploidy (≥10%).
Setting [4] is: min. effective conc., read-out: Cell Death (>30%).
The mark [5] stands for this setting: min. effective conc., read-out: Mitotic Arrest (≥10%).

Each structure is given as a SMILES string.

For 19 compounds, minimal effective concentration results are on record in US20240270695A1, “COMPOUNDS, COMPOSITIONS AND METHODS OF TREATING DISORDERS” (Chengdu Anticancer Bioscience LTD, priority 2021, published 2024).

In the case of `COC(=O)C1=C(O)c2ccccc2N(Cc2cccc3ccccc23)C(=O)C1` [Example 38, Methyl 5-hydroxy-1-(naphthalen-1-ylmethyl)-2-oxo-2,3-dihydro-1H-benzo[b]azepine-4-carboxylate], the minimal effective concentration in experiment [1] (setting [3]), in experiment [1] (setting [4]), in experiment [1] (setting [5]) and in experiment [2] was 30 to 1000 µM in each case.
Turning to `COC(=O)C1=C(O)c2ccccc2N(Cc2ccc(C#N)cc2)C(=O)C1` [Example 26, Methyl 1-(4-cyanobenzyl)-5-hydroxy-2-oxo-2,3-dihydro-1H-benzo[b]azepine-4-carboxylate], the minimal effective concentration in experiment [2] lay in the range of 30 to 1000 µM.
With `CNC(=O)C1=C(O)c2ccccc2N(Cc2cccc(C)c2C)C(=O)C1` [Example 98, 1-(2,3-dimethylbenzyl)-5-hydroxy-N-methyl-2-oxo-2,3-dihydro-1H-benzo[b]azepine-4-carboxamide], the minimal effective concentration was in the range of 10 to 30 µM in experiment [1] (setting [3]), 30 to 1000 µM in experiment [1] (setting [4]), 10 to 30 µM in experiment [1] (setting [5]) and 30 to 1000 µM in experiment [2].
`CNC(=O)C1=C(O)c2ccccc2N(Cc2ccncc2)C(=O)C1` [Example 74, 5-hydroxy-N-methyl-2-oxo-1-(pyridin-4-ylmethyl)-2,3-dihydro-1H-benzo[b]azepine-4-carboxamide]: the minimal effective concentration in experiment [1] (setting [3]), in experiment [1] (setting [4]), in experiment [1] (setting [5]) and in experiment [2] was 30 to 1000 µM throughout.
For the compound `CNC(=O)C1=C(O)c2ccccc2N(Cc2ccc(C(F)(F)F)cc2)C(=O)C1` [Example 84, 5-hydroxy-N-methyl-2-oxo-1-(4-(trifluoromethyl)benzyl)-2,3-dihydro-1H-benzo[b]azepine-4-carboxamide], the minimal effective concentration was in the range of 30 to 1000 µM in experiment [1] (setting [3]), 30 to 1000 µM in experiment [1] (setting [4]), 10 to 30 µM in experiment [1] (setting [5]) and 30 to 1000 µM in experiment [2].
In the case of `CNC(=O)C1=C(O)c2cc(F)ccc2N(Cc2ccc(C)c(F)c2)C(=O)C1` [Example 135, 7-fluoro-1-(3-fluoro-4-methylbenzyl)-5-hydroxy-N-methyl-2-oxo-2,3-dihydro-1H-benzo[b]azepine-4-carboxamide], the minimal effective concentration in experiment [1] (setting [3]), in experiment [1] (setting [4]), in experiment [1] (setting [5]) and in experiment [2] was 1 to 10 µM each time.
On to `CNC(=O)C1=C(O)c2ccccc2N(Cc2cc(C)c(F)c(C)c2)C(=O)C1` [Example 121, 1-(4-fluoro-3,5-dimethylbenzyl)-5-hydroxy-N-methyl-2-oxo-2,3-dihydro-1H-benzo[b]azepine-4-carboxamide], for which the minimal effective concentration in experiment [1] (setting [3]), in experiment [1] (setting [4]), in experiment [1] (setting [5]) and in experiment [2] was 10 to 30 µM each time.
On to `CNC(=O)C1=C(O)c2ccccc2N(Cc2ccc(C)cc2)C(=O)C1` [Example 79, 5-hydroxy-N-methyl-1-(4-methylbenzyl)-2-oxo-2,3-dihydro-1H-benzo[b]azepine-4-carboxamide], for which the minimal effective concentration in experiment [1] (setting [3]), in experiment [1] (setting [4]), in experiment [1] (setting [5]) and in experiment [2] was 1 to 10 µM each time.
Consider `COC(=O)Cc1ccc(CN2C(=O)CC(C(=O)OC)=C(O)c3ccccc32)cc1` [Example 42, Methyl 5-hydroxy-1-(4-(2-methoxy-2-oxoethyl)benzyl)-2-oxo-2,3-dihydro-1H-benzo[b]azepine-4-carboxylate], for which, in experiment [2], the minimal effective concentration lay in the range of 30 to 1000 µM.
Same read-out and setting: under `COC(=O)C1=C(O)c2ccccc2N(Cc2cccc(F)c2)C(=O)C1` [Example 8, Methyl 1-(3-fluorobenzyl)-5-hydroxy-2-oxo-2,3-dihydro-1H-benzo[b]azepine-4-carboxylate] stands 30 to 1000 µM.
On the same count and under the same terms, as for `COC(=O)C1=C(O)c2ccccc2N(Cc2ccc(OC(F)(F)F)cc2)C(=O)C1` [Example 32, Methyl 5-hydroxy-2-oxo-1-(4-(trifluoromethoxy)benzyl)-2,3-dihydro-1H-benzo[b]azepine-4-carboxylate], the figure is 30 to 1000 µM.
Same read-out and setting: under `COC(=O)C1=C(O)c2ccccc2N(Cc2cc(OC)cc(OC)c2)C(=O)C1` [Example 11, Methyl 1-(3,5-dimethoxybenzyl)-5-hydroxy-2-oxo-2,3-dihydro-1H-benzo[b]azepine-4-carboxylate] stands 30 to 1000 µM.
In the case of `COC(=O)C1=C(O)c2ccccc2N(Cc2ccc(C(C)C)cc2)C(=O)C1` [Example 30, Methyl 5-hydroxy-1-(4-isopropylbenzyl)-2-oxo-2,3-dihydro-1H-benzo[b]azepine-4-carboxylate], the minimal effective concentration in experiment [1] (setting [3]), in experiment [1] (setting [4]) and in experiment [1] (setting [5]) was 10 to 30 µM throughout.
With `Cc1ccc(CN2C(=O)CC(C(=O)NC(C)C)=C(O)c3ccccc32)cc1F` [Example 65, 1-(3-fluoro-4-methylbenzyl)-5-hydroxy-N-isopropyl-2-oxo-2,3-dihydro-1H-benzo[b]azepine-4-carboxamide], the minimal effective concentration in experiment [1] (setting [3]), in experiment [1] (setting [4]) and in experiment [1] (setting [5]) was 1 to 10 µM throughout.
Turning to `COC(=O)C1=C(O)c2ccccc2N(Cc2cccc(C)c2)C(=O)C1` [Example 5, Methyl 5-hydroxy-1-(3-methylbenzyl)-2-oxo-2,3-dihydro-1H-benzo[b]azepine-4-carboxylate], the minimal effective concentration in experiment [1] (setting [3]), in experiment [1] (setting [4]) and in experiment [1] (setting [5]) was 30 to 1000 µM each time.
With `COC(=O)C1=C(O)c2ccccc2N(Cc2ccccc2F)C(=O)C1` [Example 9, Methyl 1-(2-fluorobenzyl)-5-hydroxy-2-oxo-2,3-dihydro-1H-benzo[b]azepine-4-carboxylate], the minimal effective concentration in experiment [1] (setting [3]) and in experiment [1] (setting [5]) was 30 to 1000 µM in each case.
For the compound `COC(=O)C1=C(O)c2ccccc2N(Cc2ccc(C)c(F)c2)C(=O)C1` [Example 41, Methyl 1-(3-fluoro-4-methylbenzyl)-5-hydroxy-2-oxo-2,3-dihydro-1H-benzo[b]azepine-4-carboxylate], the minimal effective concentration in experiment [1] (setting [3]), in experiment [1] (setting [4]) and in experiment [1] (setting [5]) was 0.001 to 1 µM in each case.
For `Cc1ccc(CN2C(=O)CC(C(=O)C(C)C)=C(O)c3ccccc32)cc1F` [Example 59, 1-(3-fluoro-4-methylbenzyl)-5-hydroxy-4-isobutyryl-1,3-dihydro-2H-benzo[b]azepin-2-one], the minimal effective concentration in experiment [1] (setting [3]), in experiment [1] (setting [4]) and in experiment [1] (setting [5]) was 0.001 to 1 µM in each case.
For `COC(=O)C1=C(O)c2cc(OC)c(OC)cc2N(Cc2ccc(C)c(F)c2)C(=O)C1` [Example 54, Methyl 1-(3-fluoro-4-methylbenzyl)-5-hydroxy-7,8-dimethoxy-2-oxo-2,3-dihydro-1H-benzo[b]azepine-4-carboxylate], the minimal effective concentration in experiment [1] (setting [3]), in experiment [1] (setting [4]) and in experiment [1] (setting [5]) was 0.001 to 1 µM each time.
